Results taken from publication PMC10134960, “Discovery of sulfonamide-tethered isatin derivatives as novel anticancer agents and VEGFR-2 inhibitors” (Journal of Enzyme Inhibition and Medicinal Chemistry, 2023).

Experiments:
[1] = tested on: NCI panel of 58 human tumour cell lines; assay: NCI in vitro single-dose antiproliferative assay, panel of 58 tumour cell lines; type: cell-based; settings: single concentration of 10 μM, read-out: cell inhibition (mean % growth inhibition, GI)
Experimental: (§1) The designed isatin derivatives 6a-i, 11a-c and 12a-c were examined for in vitro antitumor activity on NCI panel involving 58 distinct human tumour cell lines covering nine distinct types of cancer, at single concentration of 10 μM (supplementary file). […] Based on the findings, we concluded that none of compounds 6a, 6c, or 11a were able to increase cell inhibition by more than 20%. And by looking at the mean growth inhibition of the other compounds on each cancer, we discovered that, in addition to CNS cancer in compound 11c and leukaemia in compounds 12b and 12c, all the compounds had the strongest mean growth inhibition on breast cancer cell lines.
(§2) The supplementary data included descriptions of every experimental technique.
(§3) NCI-60 cancer cell lines screening
(§4) Primary anticancer assay was performed on a panel of sixty human tumour cell lines derived from nine neoplastic diseases, in accordance with the protocol of the Drug Evaluation Branch, National Cancer Institute, Bethesda, Maryland, USA. Tested compounds were added to the cell culture at a single concentration ([…]) and the cultures were incubated for 48 h. End point determinations were made with a protein binding dye, sulforhodamine B (SRB). Results for each tested compound were reported as the percent of growth of treated cells when compared to untreated control cells. The percentage growth was evaluated spectrophotometrically versus controls not treated with test agents 1. […]

CA II = CA II (Homo sapiens, UniProt P00918); assay: biochemical
Experimental: Carbonic anhydrase I, II, and IX inhibition studies
The CO2 hydration actions catalyzed by carbonic anhydrase for targeted compounds herein
presented were measured using an Applied Photophysics stopped-flow instrument. The enzymes
are recombinant proteins that have been created in a lab. Following the initial rates of the CA-
catalyzed CO2 hydration reaction for a period of 10-100 s, phenol red (at a concentration of 0.2
mM) was used as an indicator, working at an absorbance maximum of 557 nm, with 20 mM
Hepes (pH 7.5) as a buffer, and 20 mM Na2SO4 (to maintain constant the ionic strength). The
CO2 concentrations used to determine the kinetic parameters and inhibition constants ranged
from 1.7 to 17 mM. At least six traces of the first 5-10% of the reaction were utilized to
determine the beginning velocity for each inhibitor. In the same way, the uncatalyzed rates were calculated and deducted from the total measured rates. Stock inhibitor solutions (0.1 mM) were
produced in distilled-deionized water, followed by dilutions with the assay buffer up to 0.01 nM.
Prior to the experiment, the inhibitor and enzyme solutions were preincubated together for 15
minutes at room temperature to allow for the development of the E-I complex. The inhibition
constants were calculated using non-linear least-squares methods using the ChengPrusoff
equation in PRISM 3. They reflect the average of at least three individual measurements 6, 7.

CA IX [2] = molecular target: T1, CA IX (Homo sapiens, UniProt Q16790); assay: Carbonic anhydrase inhibition, stopped-flow CO2 hydration, CA IX; type: biochemical; settings: stopped flow assay, mean of triplicate assays
T1 construct: made in house

T47D cells [3] = assay: NCI in vitro single-dose cellular antiproliferative assay, T47D cells; type: cell-based; settings: Homo sapiens; T47D breast cancer cells, single concentration of 10 μM; read-out: GI% (growth inhibition)
Experimental: as §1, §2, §3, §4

T47D cells [4] = assay: In vitro cytotoxicity against T47D (sulforhodamine B colorimetric test); settings: Homo sapiens, 72 h, read-out: IC50 ± S.D. T47D
Experimental: Doxorubicin was set as reference in this assay.
The cytotoxic efficacy of the target compounds against T47D cells was determined, using the SRB colorimetric technique, as previously reported. Briefly, exponentially growing cells were trypsinized, counted and seeded at the appropriate densities (5000 cells/100 μL/ well) into 96-well microtiter plates.
Then, the cells were exposed to the tested compounds at the desired concentrations (0.01, 0.1, 1, 10, and 100 μM) or to 1% dimethyl sulfoxide (DMSO) for 72 h. At the end of the treatment period, the media were removed, and the cells were fixed with 10% trichloroacetic acid at 4 °C for 1 h. Following, the cells were washed with tap water four times and incubated with SRB 0.4% for 30 min. Excess dye was removed by washing repeatedly with 1% (vol/vol) acetic acid.
The protein-bound dye was dissolved in 10 mM Tris base solution for (optical density) OD determination at 510 nm using a Spectra Max plus Microplate Reader (Molecular Devices, CA).
Cell viability was expressed relative to the untreated control cells 2, 3.

VEGFR-2 = molecular target: T2, VEGFR-2 (Homo sapiens, UniProt P35968); assay: VEGFR-2 inhibition assay (HTRF); type: biochemical; settings: for IC50: mean ± SD of triplicate, read-out: VEGFR-2 IC50 ± S.D.
T2 construct: purchased BioAssay Systems EKIN-400
T2 sequence (P35968 20-1356): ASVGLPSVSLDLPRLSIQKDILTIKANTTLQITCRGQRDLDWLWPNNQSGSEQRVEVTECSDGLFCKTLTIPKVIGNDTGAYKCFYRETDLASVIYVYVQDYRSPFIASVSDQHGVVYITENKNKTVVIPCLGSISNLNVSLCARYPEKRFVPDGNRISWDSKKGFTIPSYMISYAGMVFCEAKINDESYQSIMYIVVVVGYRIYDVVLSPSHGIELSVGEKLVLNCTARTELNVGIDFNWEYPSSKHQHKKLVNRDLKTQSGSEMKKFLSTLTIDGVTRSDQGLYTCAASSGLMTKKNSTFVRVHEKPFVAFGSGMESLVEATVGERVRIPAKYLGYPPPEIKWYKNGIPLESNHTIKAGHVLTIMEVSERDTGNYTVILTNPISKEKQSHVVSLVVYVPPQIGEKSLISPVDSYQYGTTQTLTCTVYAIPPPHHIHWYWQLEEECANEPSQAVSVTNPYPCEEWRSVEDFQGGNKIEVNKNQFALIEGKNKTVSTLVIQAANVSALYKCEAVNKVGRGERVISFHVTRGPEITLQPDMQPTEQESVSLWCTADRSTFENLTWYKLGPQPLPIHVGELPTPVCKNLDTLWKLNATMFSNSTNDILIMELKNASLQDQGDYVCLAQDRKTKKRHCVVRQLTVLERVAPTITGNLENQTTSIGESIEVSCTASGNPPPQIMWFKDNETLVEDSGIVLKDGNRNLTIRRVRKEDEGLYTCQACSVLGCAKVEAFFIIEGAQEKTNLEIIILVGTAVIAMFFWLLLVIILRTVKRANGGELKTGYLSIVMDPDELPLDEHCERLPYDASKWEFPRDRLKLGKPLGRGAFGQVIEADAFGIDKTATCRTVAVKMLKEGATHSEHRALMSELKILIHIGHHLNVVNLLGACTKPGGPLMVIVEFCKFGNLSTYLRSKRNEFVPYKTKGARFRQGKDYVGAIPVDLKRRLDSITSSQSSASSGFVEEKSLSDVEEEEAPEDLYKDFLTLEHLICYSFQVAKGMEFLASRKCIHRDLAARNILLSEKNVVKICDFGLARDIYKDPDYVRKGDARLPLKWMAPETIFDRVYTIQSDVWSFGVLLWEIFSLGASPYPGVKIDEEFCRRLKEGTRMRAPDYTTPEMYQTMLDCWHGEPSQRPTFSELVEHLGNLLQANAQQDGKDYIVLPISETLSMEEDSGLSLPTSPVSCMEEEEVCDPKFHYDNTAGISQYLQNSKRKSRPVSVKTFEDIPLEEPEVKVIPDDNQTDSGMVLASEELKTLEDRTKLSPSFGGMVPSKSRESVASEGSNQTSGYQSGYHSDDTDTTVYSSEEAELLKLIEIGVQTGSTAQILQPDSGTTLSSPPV
Experimental: HTRF (homogeneous time-resolved fluorescence) assay method was used to conduct inhibitory action of all newly synthesized compounds against VEGFR-2. VEGFR-2 kinase (BioAssay Systems - Kinase Assay Kit, EKIN-400) and its substrate were incubated for 5 min in a buffer solution with newly synthesized compounds/Sorafnib to initiate the enzymatic reaction, then ATP was added to the reaction mixture. Hold under 30 min at room temperature. The reaction was stopped by adding

CA I = molecular target: T3, CA I (Homo sapiens, UniProt P00915); assay: Carbonic anhydrase inhibition, stopped-flow CO2 hydration, CA I; type: biochemical; settings: stopped flow assay, mean of triplicate assays
T3 construct: made in house
T3 sequence (P00915 whole entry): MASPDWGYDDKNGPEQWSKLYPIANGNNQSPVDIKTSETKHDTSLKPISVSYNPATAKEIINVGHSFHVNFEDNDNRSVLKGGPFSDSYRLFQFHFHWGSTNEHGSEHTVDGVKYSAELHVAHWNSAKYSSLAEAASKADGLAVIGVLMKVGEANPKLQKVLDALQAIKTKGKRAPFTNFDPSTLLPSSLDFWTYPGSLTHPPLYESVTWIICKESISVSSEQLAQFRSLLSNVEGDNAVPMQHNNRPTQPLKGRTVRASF

T47D cells [5] = assay: Annexin V-FITC/PI apoptosis assay; type: cell-based, human; settings: for Early apoptosis / Late apoptosis: 24 h, annexin V-FITC/PI; for increase of overall apoptosis in comparison to the control: versus untreated control
Source text: To explore link between growth suppression activity of compounds 11b and 12b with initiation of apoptosis indicated by rising population of sub-G1 in treated T47D cell lines, the Annexin V-FITC/PI double labelling (AV/PI) apoptosis assay was done. The outcomes of the experiment are shown in Figure 4, showing that compounds 11b and 12b caused T47D cell lines to undergo early and late apoptosis. In fact, % of apoptotic cells amplified from 0.41% at early and 0.22% at late apoptosis in T47D cells that had not been treated to 31.0% of early and 12.07% of late apoptosis in T47D cell that had been treated with compound 11b and to 23.5% at early and 9.4% at late apoptosis of T47D cells that had been treated with compound 12b. According to these findings, compounds 11b and 12b increased the overall apoptosis of T47D cells by roughly 19 and 16.2 times, respectively, in comparison to the control.
The supplementary data included descriptions of every experimental technique. […]
μM of compounds 11b and 12b. […]
(§5) and fixed for 12 h. […] Then, the cells
Cell cycle analysis and apoptosis were […]
experiment has been carried out three times.
Annexin V-FITC apoptosis assay […]
washed with cold phosphate-buffer saline (PBS). Cells were then stained with Annexin V-FITC […]
The samples were analyzed using the flow cytometer 8, 9.

T47D cells [6] = assay: Cell cycle distribution analysis by flow cytometry; type: cell-based, human; settings: 10 μM, 24 h
Experimental: DMSO (control) or compounds 11b and 12b were applied to T47D cells, and flow cytometry was used to determine the DNA concentration. Figure 3 presents the findings. […]
μM of compounds 11b and 12b.
as §5
Cell cycle analysis and apoptosis were
experiment has been carried out three times. […]

CA IX [7] = molecular target: CA IX; parameters: method as in PMID 30445264; settings: cancer-related CA IX isoform; cited from earlier work

COc1ccc(/C(C)=N/N=C2/C(=O)Nc3ccccc32)cc1S(N)(=O)=O [Compound 6a]
melting point: 250 to 252 °C | inhibition at 10 µM [1]: ≤ 20%

COc1ccc(/C(C)=N/N=C2/C(=O)Nc3ccc(F)cc32)cc1S(N)(=O)=O [Compound 6b]
melting point: 262 to 264 °C

COc1ccc(/C(C)=N/N=C2/C(=O)Nc3c(F)cccc32)cc1S(N)(=O)=O [Compound 6c]
melting point: 266 to 268 °C | inhibition at 10 µM [1]: ≤ 20%

COc1ccc(/C(C)=N/N=C2/C(=O)Nc3ccc(Cl)cc32)cc1S(N)(=O)=O [Compound 6d]
melting point: 268 to 270 °C

COc1ccc(/C(C)=N/N=C2/C(=O)Nc3c(Cl)cccc32)cc1S(N)(=O)=O [Compound 6e]
melting point: 278 to 280 °C

COc1ccc(/C(C)=N/N=C2/C(=O)Nc3ccc(Br)cc32)cc1S(N)(=O)=O [Compound 6f]
Ki (CA II): > 100 µM | Ki (CA IX [2]): > 100 µM | melting point: 274 to 276 °C | inhibition at 10 µM (T47D cells [3]): 54% | IC50 (T47D cells [4]): 5.45 ± 0.24 µM | inhibition at 10 µM (VEGFR-2): 86.8% | IC50 (VEGFR-2): 0.0567 ± 0.00072 µM | Ki (CA I): > 100 µM

COc1ccc(/C(C)=N/N=C2/C(=O)Nc3cc(Br)ccc32)cc1S(N)(=O)=O [Compound 6g]
melting point: 276 to 278 °C

COc1ccc2c(c1)/C(=N\N=C(/C)c1ccc(OC)c(S(N)(=O)=O)c1)C(=O)N2 [Compound 6h]
melting point: 264 to 266 °C

COc1ccc(/C(C)=N/N=C2/C(=O)Nc3ccc(OC(F)(F)F)cc32)cc1S(N)(=O)=O [Compound 6i]
melting point: 270 to 272 °C | inhibition at 10 µM (T47D cells [3]): 32% | IC50 (T47D cells [4]): 24.1 ± 1.08 µM

COc1ccc(/C(C)=N/N=C2/C(=O)N(C)c3ccccc32)cc1S(N)(=O)=O [Compound 11a]
inhibition at 10 µM [1]: ≤ 20%

COc1ccc(/C(C)=N/N=C2/C(=O)N(C)c3ccc(Cl)cc32)cc1S(N)(=O)=O [Compound 11b]
Ki (CA II): > 100 µM | Early apoptosis (T47D cells [5]): 31.0% | Late apoptosis (T47D cells [5]): 12.07% | increase of overall apoptosis in comparison to the control (T47D cells [5]): roughly 19 times | Ki (CA IX [2]): > 100 µM | %G0/G1 (T47D cells [6]): 68.42% | %Sub-G1 (T47D cells [6]): 45.88% | melting point: 248 to 250 °C | inhibition at 10 µM (T47D cells [3]): 55% | IC50 (T47D cells [4]): 1.83 ± 0.08 µM | inhibition at 10 µM (VEGFR-2): 72.7% | IC50 (VEGFR-2): 0.0634 ± 0.00072 µM | Ki (CA I): > 100 µM

COc1ccc(/C(C)=N/N=C2/C(=O)N(C)c3ccc(Br)cc32)cc1S(N)(=O)=O [Compound 11c]
Ki (CA II): > 100 µM | Ki (CA IX [2]): > 100 µM | melting point: 263 to 265 °C | inhibition at 10 µM (T47D cells [3]): 52% | IC50 (T47D cells [4]): 10.4 ± 0.47 µM | inhibition at 10 µM (VEGFR-2): 92% | IC50 (VEGFR-2): 0.0301 ± 0.00031 µM | Ki (CA I): > 100 µM

COc1ccc(/C(C)=N/N=C2/C(=O)N(Cc3ccccc3)c3ccccc32)cc1S(N)(=O)=O [Compound 12a]
melting point: 235 to 237 °C | inhibition at 10 µM (T47D cells [3]): 57% | IC50 (T47D cells [4]): 11.6 ± 0.52 µM

COc1ccc(/C(C)=N/N=C2/C(=O)N(Cc3ccccc3)c3ccc(Cl)cc32)cc1S(N)(=O)=O [Compound 12b]
Ki (CA II): > 100 µM | Early apoptosis (T47D cells [5]): 23.5% | Late apoptosis (T47D cells [5]): 9.4% | increase of overall apoptosis in comparison to the control (T47D cells [5]): ~16.2 times | Ki (CA IX [2]): > 100 µM | %S (T47D cells [6]): 41.05% | %Sub-G1 (T47D cells [6]): 39.15% | melting point: 245 to 247 °C | inhibition at 10 µM (T47D cells [3]): 28% | IC50 (T47D cells [4]): 3.59 ± 0.16 µM | inhibition at 10 µM (VEGFR-2): 97.2% | IC50 (VEGFR-2): 0.0231 ± 0.00041 µM | Ki (CA I): > 100 µM

COc1ccc(/C(C)=N/N=C2/C(=O)N(Cc3ccccc3)c3ccc(Br)cc32)cc1S(N)(=O)=O [Compound 12c]
melting point: 260 to 262 °C | inhibition at 10 µM (T47D cells [3]): 39% | IC50 (T47D cells [4]): 16.5 ± 0.74 µM

COc1cccc2c1C(=O)c1c(O)c3c(c(O)c1C2=O)C[C@@](O)(C(=O)CO)C[C@@H]3O[C@H]1C[C@H](N)[C@H](O)[C@H](C)O1 [Doxorubicin, reference compound]
IC50 (T47D cells [4]): 2.26 ± 0.1 µM

CN1C(=O)/C(=N\c2ccc(NC(=O)Nc3ccc(S(N)(=O)=O)cc3)cc2)c2cc(Cl)ccc21 [compound II]
Ki (CA IX [7]): 0.0052 µM
